In the NIST ThermoML archive (doi:10.1016/j.fluid.2015.12.031):
± gives the expanded uncertainty stated by the source.

Settings: Liquid; Resistive pulse heating

Row | Critical pressure [kPa] | Critical temperature [K] | SMILES
1 | 2700 ± 80 | 651 ± 7 | CCOC(=O)CC(=O)OCC [diethyl 1,3-propanedioate]
2 | 2290 ± 70 | 666 ± 7 | CCOC(=O)CCC(=O)OCC [diethyl butanedioate]
3 | 1990 ± 60 | 697 ± 7 | CCOC(=O)CCCCC(=O)OCC [diethyl hexanedioate]
